Measured values from patent publication US4297359A, “Anti-ulcer compositions containing certain pyridyl oxime ethers” (ACF Chemiefarma NV, priority 1978, dated 1981).
Where two headings read alike, the source gives them in different places.

Experiments:
[1] = tested on: androgen; conditions: J. Pharm. Sci. 58, 138-141 (1969); cited from earlier work
[2] = tested on: gastric secretion; assay: Effects on Gastric Secretion in the Pyloric Ligated Rat (method of Shay et al.); format: in vivo; conditions: intraduodenal, 100 mg/kg i.d., 3 hours
Source text: 1. Effects on Gastric Secretion in the Pyloric Ligated Rat
The method as described by Shay et al. (Gastroenterol. 26, 906 (1945)) was used. After overnight starvation the pylorus of a rat was ligated under halothane aenesthesia and the compound under test or vehicle only administered intraduodenally and the rats allowed to recover. They were sacrificed three hours later and the gastric juice removed. After measurement of the volume of secretion, its hydrogen ion concentration, [H^+ ], was determined by titration with 0.5 n NaOH to pH 7. Groups of 4-6 animals were used for each treatment and the inhibitory effect of the compound was ascertained by comparison of the mean values obtained with those from a simultaneously set up control group of animals which received vehicle only. Students `t` test was applied for significance between groups. The mean values for % inhibition obtained for a number of experiments are shown in the following Table 1, the dosage being 100 mg/kg i.d.

[3] = tested on: indomethacin induced gastric damage; assay: Anti-ulcer activity: inhibition of indomethacin induced gastric damage in the rat (method of Elegbe); format: in vivo; conditions: po, 5 h; for inhibition in vivo at 50 mg/kg: 50 mg/kg (footnote *) orally; for inhibition in vivo at 100 mg/kg: read-out: % Inhibition (of gastric damage)
Experimental: Rats were starved overnight, given indomethacin subcutaneously (15 mg/kg) and sacrificed 5 hours later. Stomachs were inflated with 0.9% saline, cut along the greater curvature, pinned out and scored for gastric damage by the following system:
Score 1-3 according to the degree of erythema and slight haemorrhage.
Score 4-6 according to the degree of mucosal erosion.
Score 7-9 according to the depth of gastric damage.
Compound or vehicle was administered orally 30 minutes prior to, and at 2 hours after dosing with indomethacin. Mean values per treatment were obtained using the above scoring system and the Mann Witney test applied for significance between such values.

[4] = tested on: acetylcholine; conditions: Farmaco. Ed. Sci. 19, 668-702 (1964); cited from earlier work
[5] = read-out: % Inhibition, Volume (of gastric secretion)
[6] = read-out: % Inhibition, [H^+ ] (hydrogen ion concentration of gastric juice)
[7] = 30 minutes prior to and 2 hours after indomethacin (15 mg/kg s.c.)
[8] = 100 mg/kg orally, 30 minutes prior to and 2 hours after indomethacin (15 mg/kg s.c.)

Structure (SMILES)	inhibition in vivo at 100 mg/kg [2, 5]	inhibition in vivo at 100 mg/kg [2, 6]	inhibition in vivo at 100 mg/kg [3, 8]	other results
COc1ccc(C(=NOCCN(C)C)c2cccs2)cc1 [4-methoxyphenyl 2-thienyl ketone, O-dimethylaminoethyl oxime]				anti-androgenic activity [1]: showed anti-androgenic activity; effective dose relative to toxic dose [1]: the effective dose was very close to the toxic dose
CON=C(c1ccccc1)c1ccncc1 [Compound 1, Phenyl 4-pyridinyl ketone, O-methyl oxime]	82%	41%		inhibition in vivo at 50 mg/kg [3, 7]: 86%
CO/N=C(\c1ccccc1)c1ccccn1 [Compound 2, phenyl 2-pyridinyl ketone, O-methyl oxime]	76%	33%		inhibition in vivo at 50 mg/kg [3, 7]: 79%
CO/N=C(\c1ccccc1)c1cccnc1 [Compound 3, phenyl 3-pyridinyl ketone, O-methyl oxime]	87%	50%		inhibition in vivo at 50 mg/kg [3, 7]: 82%
CO/N=C(\c1ccccc1)c1ccncc1 [Compound 4, phenyl 4-pyridinyl ketone, O-methyl oxime]	82%	50%	77%	
CON=C(c1ccncc1)c1ccc(C)cc1 [Compound 6, 4-methylphenyl 4-pyridinyl ketone, O-methyl oxime]	81%	89%	80%	
CO/N=C(\c1ccncc1)c1ccc(OC)cc1 [Compound 7, 4-methoxyphenyl 4-pyridinyl ketone, O-methyl oxime]			88%	
CO/N=C(\c1ccncc1)c1ccc(F)cc1 [Compound 8, 4-fluorophenyl 4-pyridinyl ketone, O-methyl oxime]	76%	11%	100%	
CO/N=C(\c1ccncc1)c1ccc(Cl)cc1 [Compound 9, 4-chlorophenyl 4-pyridinyl ketone, O-methyl oxime]			80%	
CON=C(c1ccncc1)c1ccc(Cl)c(Cl)c1 [Compound 10, 3,4-dichlorophenyl 4-pyridinyl ketone, O-methyl oxime]		49%		
CON=C(c1ccccn1)c1cccs1 [Compound 11, 2-pyridinyl 2-thienyl ketone, O-methyl oxime]	84%	36%	78%	
CON=C(c1ccsc1)c1ccccn1 [Compound 12, 2-pyridinyl 3-thienyl ketone, O-methyl oxime]	78%	20%	100%	
CON=C(c1ccncc1)c1cccs1 [Compound 14, 4-pyridinyl 2-thienyl ketone, O-methyl oxime]			77%	
CON=C(Cc1ccccn1)c1ccccc1 [Compound 16, phenyl 2-pyridinylmethyl ketone, O-methyl oxime]	46%	25%	72%	
CON=C(c1ccccn1)c1ccccn1 [Compound 17, di-2-pyridinyl ketone, O-methyl oxime]	83%	14%	76%	
CON=C(c1ccncc1)c1ccc(C(F)(F)F)cc1 [Compound 18, 4-pyridinyl 4-trifluoromethylphenyl ketone, O-methyl oxime]	59%			

Structure (SMILES)	inhibition in vivo at 100 mg/kg [2, 5]	inhibition in vivo at 100 mg/kg [2, 6]	inhibition in vivo at 100 mg/kg [3, 8]	other results
CON=C(c1ccncc1)c1ccc(CO)cc1 [Compound 19, 4-hydroxymethylphenyl 4-pyridinyl ketone, O-methyl oxime]	66%	35%	71%	
N#CCON=C(c1ccccc1)c1ccncc1 [Compound 20, Phenyl 4-pyridinyl ketone, O-cyanomethyl oxime]				inhibition in vivo at 100 mg/kg [3]: 96%
CCON=C(c1ccccc1)c1ccncc1 [Compound 21, phenyl 4-pyridinyl ketone, O-ethyl oxime]	77%	24%		inhibition in vivo at 50 mg/kg [3, 7]: 100%
C=CCON=C(c1ccccc1)c1ccncc1 [Compound 22, phenyl 4-pyridinyl ketone, O-allyl oxime]	76%		79%	
C#CCON=C(c1ccccc1)c1ccncc1 [Compound 23, phenyl 4-pyridinyl ketone, O-propargyl oxime]	81%			
CN(C)CCON=C(c1ccccc1)c1ccccn1 [Compound 24, phenyl 2-pyridinyl ketone, O-2-N,N-dimethylaminoethyl oxime]	81%	36%	100%	
CN(C)CCCON=C(c1ccccc1)c1ccccn1 [Compound 25, phenyl 2-pyridinyl ketone, O-3-N,N-dimethylaminopropyl oxime]	91%	65%	77%	
CN(C)CCON=C(c1ccccc1)c1cccnc1 [Compound 26, phenyl 3-pyridinyl ketone, O-2-N,N-dimethylaminoethyl oxime]	84%			
CN(C)CCCON=C(c1ccccc1)c1cccnc1 [Compound 27, phenyl 3-pyridinyl ketone, O-3-N,N-dimethylaminopropyl oxime]	85%			
CN(C)CCON=C(c1ccccc1)c1ccncc1 [Compound 28, phenyl 4-pyridinyl ketone, O-2-N,N-dimethylaminoethyl oxime]	83%	92%	92%	
CN(C)CCCON=C(c1ccccc1)c1ccncc1 [Compound 29, phenyl 4-pyridinyl ketone, O-3-N,N-dimethylaminopropyl oxime]	72%	45%	65%	
CN(C)CCCON=C(c1ccccn1)c1cccs1 [Compound 30, 2-pyridinyl 2-thienyl ketone, O-3-N,N-dimethylaminopropyl oxime]	78%	64%	77%	
CN(C)CCCON=C(c1ccccn1)c1ccco1 [Compound 31, 2-furyl 2-pyridinyl ketone, O-3-N,N-dimethylaminopropyl oxime]	70%	30%	92%	
CO/N=C(/c1ccccc1)c1cc[n+]([O-])cc1 [Compound 32, Phenyl 4-pyridinyl ketone, O-methyl oxime, N-oxide (Z-isomer)]	84%	32%	64%	
CN(C)CCON=C(Cc1ccccn1)c1ccccc1 [phenyl 2-picolinyl ketone, O-dimethylaminoethyl oxime]				effective dose relative to toxic dose [1]: the effective dose was very close to the toxic dose
C[N+](C)(C)CCON=C(c1ccccc1)c1ccccn1.[I-] [phenyl 2-pyridinyl ketone, O-dimethylaminoethyl oxime methiodide]				acetylcholine antagonistic activity [4]: showed acetylcholine antagonistic activity
